# Source: patent publication US11932626B2, “2-pyrimidone analogs as potent antiviral agents against Alphaviruses” (priority 2020, dated 2024)
# Tests used:
# [1] = tested on: VEEV; test: microbe, parasite or virus in culture; assay type: cell-based; conditions: Venezuelan equine encephalitis virus, NHDF; for EC90: read-out: VEEV EC90; for log reduction at 10 µM: read-out: VEEV VTR
# [2] = tested on: CHIKV; test: CHIKV virus titer reduction (VTR) assay in NHDF cells; assay type: cell-based; conditions: Chikungunya virus; for log reduction at 10 µM: CHIKV titer reduction at 10 μM, normal human dermal fibroblasts (NHDF) cells; for EC90: effective concentration of 90% inhibition of virus in a VTR assay, NHDF cells
# [3] = tested on: CHIKV linked NanoLuc luciferase reporter; test: microbe, parasite or virus in culture; assay type: cell-based; conditions: Chikungunya virus, read-out: CHIKV EC50
# [4] = tested on: VEEV (TC-83); test: microbe, parasite or virus in culture; assay type: cell-based; conditions: Venezuelan equine encephalitis virus, read-out: VEEV EC50
# [5] = in vitro; conditions: human
SMILES,EC90 [1],log reduction at 10 µM [1],log reduction at 10 µM [2],EC90 [2],EC50 [3],EC50 [4],CC50 [5]
"O=C(COc1cc(OC2CC(F)(F)C2)[nH]c(=O)n1)NC12CC3CC(CC(C3)C1)C2 [compound 47, N-(Adamantan-1-Yl)-2-((6-(3,3-Difluorocyclobutoxy)-2-Oxo-1,2-Dihydropyrimidin-4-Yl)Oxy)Acetamide]",> 10 µM,0.28,5.66,0.8 µM,6.78 µM,> 40 µM,> 40 µM
"CC(C)(C)COc1cc(OCC(=O)NC23CC4CC(CC(C4)C2)C3)nc(=O)[nH]1 [compound 51, N-(Adamantan-1-Yl)-2-((6-(Neopentyloxy)-2-Oxo-1,2-Dihydropyrimidin-4-Yl)Oxy)Acetamide]",0.1 µM,3.85,3.77,0.75 µM,7.43 µM,> 40 µM,> 40 µM
"CCCCOC(=O)c1cc(SCC(=O)NC23CC4CC(CC(C4)C2)C3)nc(=O)[nH]1 [compound 39, Butyl 6-((2-((-Adamantan-1-Yl)Amino)-2-Oxoethyl)Thio)-2-Oxo-2,3-Dihydropyrimidine-4-Carboxylate]",–,–,–,–,> 40 µM,> 40 µM,> 40 µM
"CCOc1cc(OCC(=O)NC23CC4CC(CC(C4)C2)C3)nc(=O)[nH]1 [compound 55, N-(Adamantan-1-Yl)-2-((6-Ethoxy-2-Oxo-1,2-Dihydropyrimidin-4-Yl)Oxy)Acetamide]",> 10 µM,0.05,4,0.14 µM,0.179 µM,2.78 µM,> 40 µM
"O=C(COc1nc(=O)[nH]c2c1COCC2)NC12CC3CC(CC(C3)C1)C2 [compound 23, N-(Adamantan-1-Yl)-2-((2-Oxo-1,5,7,8-Tetrahydro-2H-Pyrano[4,3-D]Pyrimidin-4-Yl)Oxy)Acetamide]",2.1 µM,6.4,5.85,0.2 µM,1.11 µM,11.1 µM,> 40 µM
"CC(C)Cc1cc(C(=O)NC23CC4CC(CC(C4)C2)C3)nc(=O)[nH]1 [compound 43, N-(Adamantan-1-Yl)-6-Isobutyl-2-Oxo-1,2-Dihydropyrimidine-4-Carboxamide]",–,–,–,–,> 40 µM,> 40 µM,> 40 µM
"CCC(C)Oc1cc(OCC(=O)NC23CC4CC(CC(C4)C2)C3)nc(=O)[nH]1 (centres unmarked) [compound 56, N-(adamantan-1-yl)-2-((6-(sec-butoxy)-2-oxo-1,2-dihydropyrimidin-4-yl)oxy)acetamide]",> 10 µM,0,6.6,0.17 µM,0.701 µM,16.2 µM,> 40 µM
"CC(C)(C)c1ccc(NC(=O)c2cc[nH]c(=O)n2)cc1 [compound 30, N-(4-(Tert.-Butyl)Phenyl)-2-Oxo-1,2-Dihydropyrimidine-4-Carboxamide]",–,–,–,–,26.4 µM,> 40 µM,> 40 µM
"COc1[nH]c(=O)nc(OCC(=O)NC23CC4CC(CC(C4)C2)C3)c1F [compound 46, N-(adamantan-1-yl)-2-((5-fluoro-6-methoxy-2-oxo-1,2-dihydropyrimidin-4-yl)oxy)acetamide]",> 10 µM,0,0.42,> 10 µM,> 40 µM,> 40 µM,> 40 µM
"O=C(COc1cc[nH]c(=O)n1)NC1C2CC3CC(C2)CC1C3 (centres unmarked) [compound 8, N-(Adamantan-2-Yl)-2-((2-Oxo-1,2-Dihydropyrimidin-4-Yl)Oxy)Acetamide]",0.08 µM,1.94,1.05,0.21 µM,> 40 µM,> 40 µM,> 40 µM
Cc1[nH]c(=O)nc(SCC(=O)NC23CC4CC(CC(C4)C2)C3)c1C#N [compound 2],–,1.1,1.25,–,22.9 µM,> 40 µM,> 40 µM
"COCCOc1cc(OCC(=O)NC23CC4CC(CC(C4)C2)C3)nc(=O)[nH]1 [compound 49, N-(Adamantan-1-Yl)-2-((6-(2-Methoxyethoxy)-2-Oxo-1,2-Dihydropyrimidin-4-Yl)Oxy)Acetamide]",> 10 µM,0,3.73,1.3 µM,3.08 µM,38.6 µM,> 40 µM
"O=C(COc1nc(=O)[nH]c2c1CCCC2)NC12CC3CC(CC(C3)C1)C2 [compound 22, N-(Adamantan-1-Yl)-2-((2-Oxo-1,2,5,6,7,8-Hexahydroquinazolin-4-Yl)Oxy)Acetamide]",1.44 µM,7.02,4.94,0.045 µM,0.64 µM,8.7 µM,> 40 µM
"N#Cc1ccc(-c2cc(OCC(=O)NC34CC5CC(CC(C5)C3)C4)nc(=O)[nH]2)cc1 [compound 17, N-(Adamantan-1-Yl)-2-((6-(4-Cyanophenyl)-2-Oxo-1,2-Dihydropyrimidin-4-Yl)Oxy)Acetamide]",9.8 µM,3.69,1.59,> 40 µM,> 40 µM,> 40 µM,> 40 µM
"O=C(CSc1cc[nH]c(=O)n1)NC12CC3CC(CC(C3)C1)C2 [compound 3, N-(Adamantan-1-Yl)-2-((2-Oxo-1,2-Dihydropyrimidin-4-Yl)Thio)Acetamide]",0.31 µM,4.49,7.44,0.31 µM,0.5 µM,2.5 µM,> 40 µM
"O=C(COc1nc(=O)[nH]cc1F)NC12CC3CC(CC(C3)C1)C2 [compound 26, N-(ADAMANTAN-1-YL)-2-((5-FLUORO-2-OXO-1,2-DIHYDROPYRIMIDIN-4-YL)OXY)ACETAMIDE]",0.1 µM,3.22,5.19,0.3 µM,3.15 µM,> 40 µM,> 40 µM
"O=C(CSc1cc(C(=O)O)[nH]c(=O)n1)NC12CC3CC(CC(C3)C1)C2 [compound 40, 6-((2-((adamantan-1-yl)amino)-2-oxoethyl)thio)-2-oxo-2,3-dihydropyrimidine-4-carboxylic acid]",–,–,–,–,> 40 µM,> 40 µM,> 40 µM
"CC(C)Oc1[nH]c(=O)nc(OCC(=O)NC23CC4CC(CC(C4)C2)C3)c1F [compound 54, N-(Adamantan-1-Yl)-2-((5-Fluoro-6-Isopropoxy-2-Oxo-1,2-Dihydropyrimidin-4-Yl)Oxy)Acetamide]",–,–,–,–,21.5 µM,> 40 µM,> 40 µM
"O=C(COc1cc(OC2COC2)[nH]c(=O)n1)NC12CC3CC(CC(C3)C1)C2 [compound 53, N-(Adamantan-1-Yl)-2-((6-(Oxetan-3-Yloxy)-2-Oxo-1,2-Dihydropyrimidin-4-Yl)Oxy)Acetamide]",–,–,–,–,27.9 µM,> 40 µM,> 40 µM
"O=C(NC12CC3CC(CC(C3)C1)C2)c1cc[nH]c(=O)n1 [compound 42, N-((Adamantan-1-Yl)-2-Oxo-1,2-Dihydropyrimidine-4-Carboxamide]",–,–,–,–,> 40 µM,> 40 µM,> 40 µM
"CC(C)Cc1cc(C(=O)Nc2ccc(C(C)(C)C)cc2)nc(=O)[nH]1 [compound 31, N-(4-(Tert.-Butyl)Phenyl)-6-Isobutyl-2-Oxo-1,2-Dihydropyrimidine-4-Carboxamide]",–,–,–,–,13.1 µM,> 40 µM,> 40 µM
"O=C(COc1cc(OCC(F)(F)F)[nH]c(=O)n1)NC12CC3CC(CC(C3)C1)C2 [compound 57, N-(adamantan-1-yl)-2-((2-oxo-6-(2,2,2-trifluoroethoxy)-1,2-dihydropyrimidin-4-yl)oxy)acetamide]",–,–,7.79,0.3 µM,2.97 µM,> 40 µM,> 40 µM
"O=C(CNc1cc[nH]c(=O)n1)NC12CC3CC(CC(C3)C1)C2 [compound 6, N-(adamantan-1-yl)-2-((2-oxo-1,2-dihydropyrimidin-4-yl)amino)acetamide]",–,–,–,–,11.8 µM,> 40 µM,> 40 µM
"O=C(COc1nc(=O)[nH]c(N2CCOCC2)c1F)NC12CC3CC(CC(C3)C1)C2 [compound 33, N-(Adamantan-1-Yl)-2-((5-Fluoro-6-Morpholino-2-Oxo-1,2-Dihydropyrimidin-4-Yl)Oxy)Acetamide]",–,–,6.08,0.15 µM,1.8 µM,23.9 µM,> 40 µM
"O=C(COc1cc(OCCO)[nH]c(=O)n1)NC12CC3CC(CC(C3)C1)C2 [compound 32, N-(adamantan-1-yl)-2-((6-(2-hydroxyethoxy)-2-oxo-1,2-dihydropyrimidin-4-yl)oxy)acetamide]",–,–,3.45,0.61 µM,4.69 µM,> 40 µM,> 40 µM
"O=C(CSc1cc[nH]c(=O)n1)NCC12CC3CC(CC(C3)C1)C2 [compound 41, N-((Adamantan-1-Yl)Methyl)-2-((2-Oxo-1,2-Dihydropyrimidin-4-Yl)Thio)Acetamide]",–,–,–,–,> 40 µM,> 40 µM,> 40 µM
"CC(C)Cc1cc(C(=O)NCCC23CC4CC(CC(C4)C2)C3)nc(=O)[nH]1 [compound 5, N-(2-(Adamantan-1-Yl)Ethyl)-6-Isobutyl-2-Oxo-1,2-Dihydropyrimidine-4-Carboxamide]",–,–,–,–,35.2 µM,> 40 µM,> 40 µM
